We go through ten compounds from ChEMBL document CHEMBL1201862, “PubChem BioAssay data set” (2004).

SMILES strings stand for the structures.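 Compound exposure: 48 hours, 5 concentrations, 96-well plates. GI50 is the concentration that inhibits growth by half.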 Active and inactive are the calls of the source. Cut-off read from the data, not from the text of the source: active = GI50 up to about 1.1 µM and inactive = higher.

What all share (assay): NCI-60 cell line screen, 48 h
For assay [1], the system named is IGROV-1.
In assay [2] the test system is A549.
Assay [3] has as its system ACHN.
For assay [4], the system named is COLO 205.
For assay [5], the system named is UACC-62.
In assay [6] the test system is EKVX.
Assay [7] relates to SF-268.
Assay [8] has as its system PC-3.
Assay [9] deals with OVCAR-5.
In assay [10] the test system is SK-MEL-2.
The subject of assay [11] is OVCAR-3.
Assay [12] relates to MOLT-4.
Assay [13] relates to HCC 2998.
Assay [14] concerns NCI-H23.
Assay [15] relates to HOP-92.
Assay [16] deals with A498.
For assay [17], the system named is SW-620.
In assay [18] the test system is NCI/ADR-RES.
For assay [19], the system named is MDA-MB-435.
In assay [20] the test system is CAKI-1.

Take `CC(=O)Oc1ccn2nc(C)c(Br)c2c1`: the GI50 in [1] was > 100 µM (inactive); in assay [2] it was > 70.5 µM (inactive); in [3] it was > 100 µM (inactive); in [4], 25.6 µM (inactive); in [5] it was 25.5 µM (inactive); in [6], > 83.2 µM (inactive). Also, the GI50 in assay [7] is > 53.8 µM (inactive); in [8] it was > 53.6 µM (inactive); in assay [9], > 100 µM (inactive); in assay [10], > 54 µM (inactive); in [11] it was 39.3 µM (inactive); in assay [12] it was 43 µM (inactive). Moreover, the GI50 in [13] was > 100 µM (inactive); in assay [14] it was > 58.2 µM (inactive); in [15], > 87.1 µM (inactive); in assay [16], > 100 µM (inactive); in assay [17], > 100 µM (inactive); in assay [18], > 100 µM (inactive). Moreover, the GI50 in [19] is 31.8 µM (inactive).

On to `COc1ccc(C[C@H]2NC(=O)/C=C/C[C@@H]([C@H](C)[C@H]3O[C@@H]3c3ccccc3)OC(=O)[C@H](CC(C)C)OC(=O)[C@H](C)CNC2=O)cc1`, for which the GI50 in [1] is 3.24e-05 µM (active); in assay [2] it was 3.16e-05 µM (active); in [3], 5.93e-05 µM (active); in assay [4] it was 1.99e-05 µM (active); in [5], 6.71e-06 µM (active); in assay [6] it was 3.77e-05 µM (active). The GI50 is 7.13e-05 µM (active) in assay [7]; 2.09e-05 µM (active) in assay [8]; 3.94e-05 µM (active) in assay [9]; > 4.42e-05 µM (active) in assay [10]; 1.58e-05 µM (active) in [11]; 2.85e-05 µM (active) in [12]. Also, the GI50 in [13] was 4.45e-05 µM (active); in [14] it was 2.54e-05 µM (active); in [16], 2.15e-05 µM (active); in assay [17], 1.4e-05 µM (active); in assay [18] it was > 0.0001 µM (active); in [20], 1.25e-05 µM (active). For the same compound, in assay [19], the GI50 was 3.37e-06 µM (active).

For the compound `COC1=C2C=[N+](C)C3C(=C2C=CC1OC)Cc1cc2c(cc13)OCO2` (centres undefined), the GI50 in [1] was > 10 µM (inactive); in assay [2] it was 15.8 µM (inactive); in assay [4], 5.26 µM (inactive); in assay [5] it was 7.6 µM (inactive); in [6] it was 17.9 µM (inactive); in assay [7], 3.8 µM (inactive). The GI50 was 16.5 µM (inactive) in assay [8]; 18.2 µM (inactive) in assay [9]; 15.5 µM (inactive) in [10]; 3.75 µM (inactive) in assay [11]; 3.77 µM (inactive) in assay [12]; 13 µM (inactive) in assay [14]. Further, the GI50 in assay [15] was 22.7 µM (inactive); in assay [16] it was 43.5 µM (inactive); in [17], 26.2 µM (inactive); in [18], 29.9 µM (inactive); in [20] it was 15.8 µM (inactive); in assay [19] it was 15.4 µM (inactive).

On to `CC(C)(C)C1=CC(O)(c2c3ccccc3c(C3(O)C=C(C(C)(C)C)C(=O)C(C(C)(C)C)=C3)c3ccccc23)C=C(C(C)(C)C)C1=O`, for which the GI50 in assay [1], in assay [2], in assay [3], in [4], in assay [5] and in [6] was > 100 µM (inactive) throughout. The GI50 was > 100 µM (inactive) in assay [7]; > 100 µM (inactive) in assay [8]; > 100 µM (inactive) in assay [9]; > 100 µM (inactive) in assay [10]; > 100 µM (inactive) in assay [11]; 48.2 µM (inactive) in assay [12]. Also, the GI50 in assay [14] was > 100 µM (inactive); in [15], < 0.01 µM (active); in assay [16], 0.116 µM (active); in assay [17] it was > 100 µM (inactive); in assay [18], > 100 µM (inactive); in [20], > 100 µM (inactive). In addition, in assay [19], the GI50 is < 0.01 µM (active).

As to `N#Cc1c(NC(=S)Nc2ccc(Cl)cc2)sc2c1CCN(N1CCc3c(sc(NC(=S)Nc4ccc(Cl)cc4)c3C#N)C1)C2`, the GI50 in [1] is 16.1 µM (inactive); in assay [2], 28.5 µM (inactive); in [3], 12.7 µM (inactive); in assay [4], 16 µM (inactive); in assay [5], 10.6 µM (inactive); in assay [6] it was 18.2 µM (inactive). Further, the GI50 in assay [7] was 38.9 µM (inactive); in assay [8] it was 37.4 µM (inactive); in assay [9] it was 13.8 µM (inactive); in [10], 20.3 µM (inactive); in [11], 74.5 µM (inactive); in assay [12], 48.1 µM (inactive). Also, the GI50 in [13] is 50.2 µM (inactive); in [14] it was 33 µM (inactive); in assay [16], 15.7 µM (inactive); in [17], 30.1 µM (inactive); in [18], 76.6 µM (inactive); in [20] it was 63.8 µM (inactive). Moreover, the GI50 in assay [19] is 27.1 µM (inactive).

In the case of `O=C1N2CCN=C2c2ccccc2C1(O)c1ccccc1` (centres undefined), the GI50 in assay [1], in [2], in assay [3], in assay [4], in [5] and in [6] was > 100 µM (inactive) in each case. For the same compound, the GI50 in assay [7], in assay [8], in assay [9], in [12], in assay [13] and in assay [14] was > 100 µM (inactive) throughout. For the same compound, the GI50 in [15], in [16], in assay [17], in [18], in assay [20] and in [19] was > 100 µM (inactive) in each case.

Consider `Cc1ccc(-c2c(C#N)c(-c3ccc(Cl)cc3)c(C#N)c(=O)n2NS(=O)(=O)c2ccc(C)cc2)cc1`, for which the GI50 in assay [1] was 29.2 µM (inactive); in [2], 26.4 µM (inactive); in [3], 36.2 µM (inactive); in assay [4], 42.1 µM (inactive); in assay [5] it was 18 µM (inactive); in assay [6], 47.6 µM (inactive). For the same compound, the GI50 in assay [7] is 26.3 µM (inactive); in assay [8], 17.4 µM (inactive); in [9], 43.3 µM (inactive); in [10], 14 µM (inactive); in assay [12] it was 16.9 µM (inactive); in assay [13], 19.5 µM (inactive). Moreover, the GI50 in [15] is 19.5 µM (inactive); in [16], 35 µM (inactive); in assay [17] it was 35.8 µM (inactive); in assay [18], 18.3 µM (inactive); in assay [20] it was 34.1 µM (inactive); in [19] it was 30.6 µM (inactive).

As to `NS(=O)(=O)c1ccc(NCc2nc3ccccc3[nH]2)cc1`, the GI50 in assay [1], in assay [2], in assay [3], in assay [4], in assay [5] and in assay [6] was > 100 µM (inactive) each time. In addition, the GI50 in assay [7], in assay [8], in [9], in [10], in assay [11] and in [14] was > 100 µM (inactive) in each case. Further, the GI50 in assay [15], in assay [16], in assay [18], in assay [20] and in assay [19] was > 100 µM (inactive) in each case.

With `c1ccc(C2=NN(c3nc4ccccc4s3)C3(CCCCC3)N2)nc1`, the GI50 in [1] was 19.7 µM (inactive); in assay [2], 27.4 µM (inactive); in assay [3] it was 29.9 µM (inactive); in assay [4], 19.3 µM (inactive); in assay [5], 30.7 µM (inactive); in assay [6], 33.9 µM (inactive). Further, the GI50 is 59.2 µM (inactive) in [7]; 15.8 µM (inactive) in assay [8]; 43.5 µM (inactive) in [9]; 18.4 µM (inactive) in [10]; 16.7 µM (inactive) in assay [11]; 4.01 µM (inactive) in assay [12]. Besides, the GI50 in assay [14] is 24.9 µM (inactive); in [15] it was 31.7 µM (inactive); in [16], 32.2 µM (inactive); in [17], 30.7 µM (inactive); in assay [18], 19.7 µM (inactive); in [20] it was 29.4 µM (inactive). In [19], the GI50 was 23.4 µM (inactive).

Turning to `CC(C)[Si](OC1=C(c2ccccc2)C(NC(=O)/C=C/c2ccc([N+](=O)[O-])cc2)CCC1)(C(C)C)C(C)C` (centres undefined), the GI50 in assay [1], in [2], in assay [4], in assay [5], in assay [6] and in [7] was > 100 µM (inactive) each time. Further, the GI50 in [8], in assay [9], in assay [10], in [11], in [12] and in assay [13] was > 100 µM (inactive) in each case. The GI50 in assay [14], in assay [15], in assay [16], in assay [17], in assay [18] and in assay [19] was > 100 µM (inactive) in each case.
